The results in this text go back to patent US11078197B2, “5-membered and bicyclic heterocyclic amides as inhibitors of rock” (BRISTOL-MYERS SQUIBB COMPANY, priority 2017, dated 2021).

pIC50: −log10 of the molar value.

Sequence of ROCK2 (O75116 whole entry, species assumed): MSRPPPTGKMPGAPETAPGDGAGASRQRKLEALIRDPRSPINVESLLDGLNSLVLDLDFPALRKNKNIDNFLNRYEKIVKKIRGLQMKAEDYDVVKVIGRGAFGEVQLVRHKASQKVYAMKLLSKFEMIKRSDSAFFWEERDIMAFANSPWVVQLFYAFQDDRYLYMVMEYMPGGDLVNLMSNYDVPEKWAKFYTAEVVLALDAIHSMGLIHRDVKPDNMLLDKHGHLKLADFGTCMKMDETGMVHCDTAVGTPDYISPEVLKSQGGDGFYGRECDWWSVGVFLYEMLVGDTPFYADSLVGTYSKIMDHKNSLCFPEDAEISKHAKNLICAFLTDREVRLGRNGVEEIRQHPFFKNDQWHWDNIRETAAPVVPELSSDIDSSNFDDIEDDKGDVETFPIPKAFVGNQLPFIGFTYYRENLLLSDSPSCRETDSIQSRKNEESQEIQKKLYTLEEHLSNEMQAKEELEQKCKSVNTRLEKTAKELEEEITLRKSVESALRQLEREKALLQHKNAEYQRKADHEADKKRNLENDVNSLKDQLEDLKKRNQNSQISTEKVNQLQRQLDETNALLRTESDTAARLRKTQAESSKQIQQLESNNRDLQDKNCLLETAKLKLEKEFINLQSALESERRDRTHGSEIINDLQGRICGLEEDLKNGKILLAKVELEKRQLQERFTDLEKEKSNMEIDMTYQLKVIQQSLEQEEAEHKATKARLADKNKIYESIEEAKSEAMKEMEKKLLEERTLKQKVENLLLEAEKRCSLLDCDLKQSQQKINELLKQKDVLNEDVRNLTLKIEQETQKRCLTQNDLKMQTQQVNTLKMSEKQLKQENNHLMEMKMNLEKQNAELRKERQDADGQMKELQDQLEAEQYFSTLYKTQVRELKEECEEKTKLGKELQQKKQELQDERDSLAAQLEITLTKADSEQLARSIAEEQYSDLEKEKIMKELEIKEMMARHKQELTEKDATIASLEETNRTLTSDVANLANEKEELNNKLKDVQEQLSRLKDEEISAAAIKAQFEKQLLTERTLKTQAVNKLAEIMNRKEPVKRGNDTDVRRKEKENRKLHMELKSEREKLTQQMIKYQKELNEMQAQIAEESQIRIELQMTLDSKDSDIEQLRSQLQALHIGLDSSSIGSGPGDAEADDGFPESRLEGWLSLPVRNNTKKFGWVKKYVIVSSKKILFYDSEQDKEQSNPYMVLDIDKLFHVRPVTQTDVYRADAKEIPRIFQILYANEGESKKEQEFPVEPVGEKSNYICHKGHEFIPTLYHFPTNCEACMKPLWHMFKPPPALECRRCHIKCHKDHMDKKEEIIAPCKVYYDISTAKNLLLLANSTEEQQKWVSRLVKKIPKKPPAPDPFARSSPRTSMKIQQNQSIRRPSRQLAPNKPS

This assay concerns the target ROCK2 (Homo sapiens (Human), UniProt O75116). In words: ROCK2 assay (peptide phosphorylation, LABCHIP 3000 Reader). It counts as biochemical. The note with it: 5 μM ATP, 1.5 μM peptide substrate, dose-response. The procedure: After incubation, the reaction was terminated by the addition of EDTA and the phosphorylated and non-phosphorylated peptides separated using a LABCHIP®3000 Reader (Caliper Life Sciences). […] Compounds were tested in dose-response format, and the inhibition of kinase activity was calculated at each concentration of compound. […] Representative Examples were tested in the ROCK2 assay described above and found having ROCK2 inhibitory activity.
Regarding `N#Cc1ccc(C(=O)N[C@H]2C[C@]3(C2)C[C@H](Oc2nc4c(cc2C(N)=O)COCC4)C3)cc1F` (stereo partly drawn) [Example 93, 2-{[(aR)-6-(4-cyano-3-fluorobenzamido)spiro[3.3]heptan-2-yl]oxy}-5H,7H,8H-pyrano[4,3-b]pyridine-3-carboxamide], the negative-log IC50 (pIC50) is 5.84.
The result for `Cc1sc2cc(C(N)=O)c(O[C@H]3C[C@@]4(C[C@H](NC(=O)c5cnn6cc(OCC(C)(C)O)ccc56)C4)C3)nc2c1C` (stereo partly drawn) [Example 94, 2,3-dimethyl-5-{[(aR)-6-[6-(2-hydroxy-2-methylpropoxy)pyrazolo[1,5-a]pyridine-3-amido]spiro[3.3]heptan-2-yl]oxy}thieno[3,2-b]pyridine-6-carboxamide] reads 7.41.
In the case of `Cc1sc2cc(C(N)=O)c(O[C@H]3C[C@@]4(C[C@H](NC(=O)c5cccc(C#N)c5)C4)C3)nc2c1C` (stereo partly drawn) [Example 95, 2,3-dimethyl-5-{[(aR)-6-(3-cyanobenzamido)spiro[3.3]heptan-2-yl]oxy}thieno[3,2-b]pyridine-6-carboxamide], the pIC50 is 7.10. Compared with the last compound, the pIC50 is 0.31 log units lower.
Compound `Cc1sc2cc(C(N)=O)c(O[C@H]3C[C@@]4(C[C@H](NC(=O)c5cnc6ccc(F)cc6c5)C4)C3)nc2c1C` (stereo partly drawn) [Example 96, 6-fluoro-N-[(aR)-6-({6-carbamoyl-2,3-dimethylthieno[3,2-b]pyridin-5-yl}oxy)spiro[3.3]heptan-2-yl]quinoline-3-carboxamide] had a negative logarithm of the IC50 (pIC50) of 6.90.
`Cc1csc2cc(C(N)=O)c(O[C@H]3C[C@@]4(C[C@H](NC(=O)c5cnn6cc(OCC(C)(C)O)ccc56)C4)C3)nc12` (stereo partly drawn) [Example 97, 3-methyl-5-{[(aR)-6-[6-(2-hydroxy-2-methylpropoxy)pyrazolo[1,5-a]pyridine-3-amido]spiro[3.3]heptan-2-yl]oxy}thieno[3,2-b]pyridine-6-carboxamide] gave a pIC50 of 7.92.
Then `Cc1csc2cc(C(N)=O)c(O[C@H]3C[C@@]4(C[C@H](NC(=O)c5cccc(C#N)c5)C4)C3)nc12` (stereo partly drawn) [Example 98, 3-methyl-5-{[(aR)-6-(3-cyanobenzamido)spiro[3.3]heptan-2-yl]oxy}thieno[3,2-b]pyridine-6-carboxamide], with 7.59; and `Cc1csc2cc(C(N)=O)c(O[C@H]3C[C@@]4(C[C@H](NC(=O)c5cnc6ccc(F)cc6c5)C4)C3)nc12` (stereo partly drawn) [Example 99, 6-fluoro-N-[(aR)-6-({6-carbamoyl-3-methylthieno[3,2-b]pyridin-5-yl}oxy)spiro[3.3]heptan-2-yl]quinoline-3-carboxamide], with 7.17; and `NC(=O)c1cc2c(nc1O[C@H]1C[C@@]3(C[C@H](NC(=O)c4cnc5ccc(F)cc5c4)C3)C1)CCOC2` (stereo partly drawn) [Example 100, 6-fluoro-N-[(aR)-6-({3-carbamoyl-5H,7H,8H-pyrano[4,3-b]pyridin-2-yl}oxy)spiro[3.3]heptan-2-yl]quinoline-3-carboxamide], with 7.44.
The result for `Cn1ncc2cc(C(N)=O)c(O[C@H]3C[C@@]4(C[C@H](NC(=O)c5cnn6cc(OCC(C)(C)O)ccc56)C4)C3)nc21` (stereo partly drawn) [Example 101, 1-methyl-6-{[(aR)-6-[6-(2-hydroxy-2-methylpropoxy)pyrazolo [1,5-a]pyridine-3-amido]spiro[3.3]heptan-2-yl]oxy}-1H-pyrazolo[3,4-b]pyridine-5-carboxamide] reads 8.22; that for `Cn1ncc2cc(C(N)=O)c(O[C@H]3C[C@@]4(C[C@H](NC(=O)c5cccc(C#N)c5)C4)C3)nc21` (stereo partly drawn) [Example 102, 1-methyl-6-{[(aR)-6-(3-cyanobenzamido)spiro[3.3]heptan-2-yl]oxy}-1H-pyrazolo[3,4-b]pyridine-5-carboxamide], 8.10.
Then `Cn1ncc2cc(C(N)=O)c(O[C@H]3C[C@@]4(C[C@H](NC(=O)c5cnc6ccc(F)cc6c5)C4)C3)nc21` (stereo partly drawn) [Example 103, 6-fluoro-N-[(aR)-6-({5-carbamoyl-1-methyl-1H-pyrazolo[3,4-b]pyridin-6-yl}oxy)spiro[3.3]heptan-2-yl]quinoline-3-carboxamide], with 8.30.
Compound `NC(=O)c1cn(C2CC2)nc1O[C@H]1C[C@]2(C1)C[C@H](N1C(=O)NC(Cc3ccccc3)C1=O)C2` (stereo partly drawn) [Example 104, 1-cyclopropyl-3-{[(aR)-6-(4-benzyl-2,5-dioxoimidazolidin-1-yl)spiro[3.3]heptan-2-yl]oxy}-1H-pyrazole-4-carboxamide] gave a negative logarithm of the IC50 (pIC50) of 5.69.
Then `CC(C)CC1NC(=O)N([C@H]2C[C@@]3(C[C@H](Oc4nn(C5CC5)cc4C(N)=O)C3)C2)C1=O` (stereo partly drawn) [Example 105, 1-cyclopropyl-3-{[(aR)-6-[4-(2-methylpropyl)-2,5-dioxoimidazolidin-1-yl]spiro[3.3]heptan-2-yl]oxy}-1H-pyrazole-4-carboxamide], with 6.88; and `CC(C)C1NC(=O)N([C@H]2C[C@@]3(C[C@H](Oc4nc(C5CC5)sc4C(N)=O)C3)C2)C1=O` (stereo partly drawn) [Example 106, 2-cyclopropyl-4-{[(aR)-6-[2,5-dioxo-4-(propan-2-yl)imidazolidin-1-yl]spiro[3.3]heptan-2-yl]oxy}-1,3-thiazole-5-carboxamide], with 6.23.
The result for `NC(=O)c1sc(C2CC2)nc1O[C@H]1C[C@]2(C1)C[C@H](N1C(=O)NC(Cc3cccnc3)C1=O)C2` (stereo partly drawn) [Example 107, 2-cyclopropyl-4-{[(aR)-6-{2,5-dioxo-4-[(pyridin-3-yl)methyl]imidazolidin-1-yl}spiro[3.3]heptan-2-yl]oxy}-1,3-thiazole-5-carboxamide] reads 5.74; that for `CCC1NC(=O)N([C@H]2C[C@@]3(C[C@H](Oc4nc(C5CC5)sc4C(N)=O)C3)C2)C1=O` (stereo partly drawn) [Example 108, 2-cyclopropyl-4-{[(aR)-6-(4-ethyl-2,5-dioxoimidazolidin-1-yl)spiro[3.3]heptan-2-yl]oxy}-1,3-thiazole-5-carboxamide], 5.73.
Then `COc1nc(O[C@H]2CC3(C[C@H](NC(=O)c4cnn(-c5ccc(C#N)cc5)c4C)C3)C2)c(C(N)=O)s1` (stereo partly drawn) [Example 112, 4-(((2S,4s,6)-6-(1-(4-cyanophenyl)-5-methyl-1H-pyrazole-4-carboxamido)spiro[3.3]heptan-2-yl)oxy)-2-methoxythiazole-5-carboxamide], with 6.69; and `COc1nc(O[C@H]2C[C@@]3(C[C@H](NC(=O)c4cnn(-c5ccc(Cl)cc5)c4C)C3)C2)c(C(N)=O)s1` (stereo partly drawn) [Example 113, 2-methoxy-4-{[(4s)-6-[1-(4-chlorophenyl)-5-methyl-1H-pyrazole-4-amido]spiro[3.3]heptan-2-yl]oxy}-1,3-thiazole-5-carboxamide], with 7.27; and `COc1nc(O[C@H]2C[C@@]3(C[C@H](NC(=O)c4cnn(-c5ccc(C(F)(F)F)cn5)c4C)C3)C2)c(C(N)=O)s1` (stereo partly drawn) [Example 114, 2-methoxy-4-{[(4s)-6-{5-methyl-1-[5-(trifluoromethyl)pyridin-2-yl]-1H-pyrazole-4-amido}spiro[3.3]heptan-2-yl]oxy}-1,3-thiazole-5-carboxamide], with 6.94.
With `COc1nc(O[C@H]2C[C@@]3(C[C@H](NC(=O)c4cnn5cc(OCC(F)F)ccc45)C3)C2)c(C(N)=O)s1` (stereo partly drawn) [Example 115, 2-methoxy-4-{[(4s)-6-[6-(2,2-difluoroethoxy)pyrazolo[1,5-a]pyridine-3-amido]spiro[3.3]heptan-2-yl]oxy}-1,3-thiazole-5-carboxamide], the pIC50 was 7.51.
`COc1nc(O[C@H]2C[C@@]3(C[C@H](NC(=O)c4cnn5cc(OCC(O)(C(F)(F)F)C(F)(F)F)ccc45)C3)C2)c(C(N)=O)s1` (stereo partly drawn) [Example 116, 2-methoxy-4-{[(4s)-6-{6-[3,3,3-trifluoro-2-hydroxy-2-(trifluoromethyl)propoxy]pyrazolo[1,5-a]pyridine-3-amido}spiro[3.3]heptan-2-yl]oxy}-1,3-thiazole-5-carboxamide] showed a pIC50 of 7.15. This pIC50 is 0.36 log units lower than that of the compound before.
The result for `COc1nc(O[C@H]2C[C@@]3(C[C@H](NC(=O)c4cnn5cc(OCC(F)(F)F)ccc45)C3)C2)c(C(N)=O)s1` (stereo partly drawn) [Example 117, 2-methoxy-4-{[(4s)-6-[6-(2,2,2-trifluoroethoxy)pyrazolo[1,5-a]pyridine-3-amido]spiro[3.3]heptan-2-yl]oxy}-1,3-thiazole-5-carboxamide] reads 7.23.
The result for `Cc1c(C(=O)N[C@H]2C[C@]3(C2)C[C@H](Oc2nn4ccccc4c2C(N)=O)C3)cnn1-c1ccc(C#N)cc1` (stereo partly drawn) [Example 118, 1-(4-cyanophenyl)-5-methyl-N-[(4s)-6-({3-carbamoylpyrazolo[1,5-a]pyridin-2-yl}oxy)spiro[3.3]heptan-2-yl]-1H-pyrazole-4-carboxamide] reads 6.19; that for `Cc1c(C(=O)N[C@H]2C[C@]3(C2)C[C@H](Oc2nn4ccccc4c2C(N)=O)C3)cnn1-c1ccc(Cl)cc1` (stereo partly drawn) [Example 119, 1-(4-chlorophenyl)-5-methyl-N-[(4s)-6-({3-carbamoylpyrazolo[1,5-a]pyridin-2-yl}oxy)spiro[3.3]heptan-2-yl]-1H-pyrazole-4-carboxamide], 6.45.
The result for `Cc1c(C(=O)N[C@H]2C[C@]3(C2)C[C@H](Oc2nn4ccccc4c2C(N)=O)C3)cnn1-c1ccc(C(F)(F)F)cn1` (stereo partly drawn) [Example 120, 5-methyl-N-[(4s)-6-({3-carbamoylpyrazolo[1,5-a]pyridin-2-yl}oxy)spiro[3.3]heptan-2-yl]-1-[5-(trifluoromethyl)pyridin-2-yl]-1H-pyrazole-4-carboxamide] reads 6.09; that for `CC(C)(O)COc1ccc2c(C(=O)N[C@H]3C[C@]4(C3)C[C@H](Oc3nn5ccccc5c3C(N)=O)C4)nn(C(F)F)c2c1` (stereo partly drawn) [Example 121, 1-(difluoromethyl)-6-(2-hydroxy-2-methylpropoxy)-N-[(4s)-6-({3-carbamoylpyrazolo[1,5-a]pyridin-2-yl}oxy)spiro[3.3]heptan-2-yl]-1H-indazole-3-carboxamide], 7.74; that for `NC(=O)c1c(O[C@H]2C[C@@]3(C[C@H](NC(=O)c4cnn5cc(OCC(F)F)ccc45)C3)C2)nn2ccccc12` (stereo partly drawn) [Example 122, 2-{[(4s)-6-[6-(2,2-difluoroethoxy)pyrazolo[1,5-a]pyridine-3-amido]spiro[3.3]heptan-2-yl]oxy}pyrazolo[1,5-a]pyridine-3-carboxamide], 6.93.

The term pIC50 denotes the IC50 on a negative log10 scale, so that one unit is a factor of ten.
